Consider 7 compounds from paper PMC10820527, “Synthesis, Characterization, and Investigation of Anti-Inflammatory and Cytotoxic Activities of Novel Thiourea Derivatives of Naproxen” (Pharmaceutics, 2023).

Data set [1] deals with MRC-5 fibroblast cell line. Description: MTT cytotoxicity assay, MRC-5. It counts as cell-based. To be noted: Homo sapiens, mean ± SD. The procedure: (§1) Three cancer cell lines (MDA-MB-231, HCT116 and HeLa; i.e., human breast cancer cells, human colorectal cancer cells, and human cervical cancer cells, respectively), and one non-malignant fibroblast MRC-5 cell line (control) were used in this study. The American Type Cell Collection (ATCC, Manassas, VA, USA) provided all examined cell lines. The cells were grown in a complete medium made up of high-glucose DMEM media supplemented with 10% fetal bovine serum and […] L-glutamine (both from Sigma-Aldrich, USA). The cells were cultured in 25 cc flasks (Thermo Fischer Scientific, Waltham, MA, USA) at 37 °C with 100% humidity in a 5% CO2 atmosphere.
(§2) The MTT test was used to assess the cytotoxicity of compounds 1–14 [44]. The cytotoxicity of naproxen was also investigated due to its clinical use and structural similarity. Throughout the exponential development period, cells were taken from culture flasks and counted, and 5 × 10^3 cells/well were planted into 96-well culture plates. Following that, the cell lines were treated with varying doses of the investigated chemicals (1–14), naproxen ([…]), and fresh complete media as a control. All evaluated cells were incubated for 24, 48, and 72 h at 37 °C in an environment containing 5% CO2 and 100% humidity. Following incubation, each well’s culture media was taken out, each well received an addition of MTT solution at a final concentration of 0.5 mg/mL, and the cells were left to incubate for an additional four hours. The MTT solution was then withdrawn carefully, and the formazan crystals were dissolved in DMSO. After shaking the plates for 10 min, absorbance at 595 nm was measured using a multiplate reader (Zenyth 3100, Anthos Labtec Instruments, Salzburg, Austria). All concentrations of the tested compounds were performed in three separate wells of the microtiter plates and in three separate experiments. The results were reported as a ratio to the control value, untreated cells. IC50 values were also determined using Microsoft Office Excel 2021. The percentage of viable cells was estimated by dividing the readout absorbance value in the wells containing treated cells by the average absorbance value measured in the wells containing untreated cells, and multiplying the result by 100 [44]. % of the viable cells = ((absorbance of treated cell-absorbance of blank)/(absorbance of untreated cell-absorbance of blank)) × 100(3)

In another data set the target is T1, 5-LOX (Homo sapiens, UniProt P09917).
T1 construct: purchased Abcam
T1 sequence (P09917 1-674): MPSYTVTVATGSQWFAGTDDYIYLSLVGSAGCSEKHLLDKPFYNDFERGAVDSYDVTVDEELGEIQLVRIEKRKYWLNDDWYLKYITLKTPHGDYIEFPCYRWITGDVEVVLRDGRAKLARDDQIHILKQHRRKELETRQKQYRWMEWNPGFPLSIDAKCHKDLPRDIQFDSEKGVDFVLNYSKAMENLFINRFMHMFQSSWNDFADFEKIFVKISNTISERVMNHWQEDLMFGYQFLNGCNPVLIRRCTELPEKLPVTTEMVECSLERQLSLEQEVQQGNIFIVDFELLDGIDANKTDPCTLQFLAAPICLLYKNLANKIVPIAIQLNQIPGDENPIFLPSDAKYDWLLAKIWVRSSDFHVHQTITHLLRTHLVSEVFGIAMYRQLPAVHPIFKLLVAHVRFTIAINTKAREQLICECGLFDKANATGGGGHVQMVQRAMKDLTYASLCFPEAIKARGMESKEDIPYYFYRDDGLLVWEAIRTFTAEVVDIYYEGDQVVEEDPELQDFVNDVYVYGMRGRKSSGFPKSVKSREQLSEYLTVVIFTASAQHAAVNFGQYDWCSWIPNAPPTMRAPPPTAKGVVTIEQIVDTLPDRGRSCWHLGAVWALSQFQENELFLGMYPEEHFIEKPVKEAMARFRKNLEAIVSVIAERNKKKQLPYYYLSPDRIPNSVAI
Description: Fluorometric 5-LOX inhibitor screening kit. To be noted: mean of two measurements with standard error, read-out: 5-LOX Percent of Inhibition. It counts as biochemical. The method, then: The COX-2 and 5-LOX inhibitory potential of the tested compounds was evaluated using a fluorometric COX-2 and 5-LOX inhibitor screening kit (Abcam, Cambridge, UK). These tests are based on determining the presence of prostaglandin G2 (a product of COX enzyme activity) or an intermediate generated by the enzyme 5-LOX, using fluorometric detection. The mentioned experiments were performed according to the manufacturer’s instructions.
For the determination of COX-2 inhibitory potential of tested compounds, stock solutions (5 mM in DMSO) were diluted with the same solvent (test solutions). The test solutions were further diluted with COX assay buffer by mixing 2 µL of the corresponding test solution and 8 µL of COX assay buffer. For the preparation of inhibitory control (IC), celecoxib (2 µL) and COX assay buffer (8 µL) were mixed. Solvent control (SC) was prepared by mixing DMSO (2 µL) and the COX assay buffer (8 µL), enzyme control (EC) was 10 µL of COX assay buffer, while the samples (S) were 10 µL of diluted test solutions. IC, SC, EC, and S were transferred into corresponding wells. For the determination of 5-LOX inhibitory potential of tested compounds, stock solutions of the same concentration (5 mM) were prepared in DMSO. These solutions were further diluted with the same solvent to obtain the test solutions, which were added into the appropriate wells (2 µL). EC, SC, and IC were prepared by adding 2 µL of the assay buffer, DMSO, and zileuton into corresponding wells, respectively.
The fluorescence of the samples was measured kinetically at 25 °C (COX-2: Ex/Em = 535/587 nm, during 10 min; 5-LOX: Ek/Em = 500/536 nm during 20 min) using a Synergi LX multi-mode microplate reader (BioTek, Shoreline, WA, USA).

The next data set concerns MDA-MB-231. Description: MTT cytotoxicity assay, MDA-MB-231. It counts as cell-based, human. The note with it: for IC50: mean ± SD. The method, then: as §1, §2
The mark [2] stands for this setting: Homo sapiens, MDA-MB-231, 24 h, 24 h.
[3] abbreviates: Homo sapiens, MDA-MB-231, 48 h, 48 h.
[4] abbreviates: Homo sapiens, MDA-MB-231, 72 h, 72 h.

In the case of `COc1ccc2cc([C@H](C)C(=O)NC(=S)Nc3ccccc3)ccc2c1` [Compound 8, (S)-2-(6-methoxynaphthalen-2-yl)-N-(phenylcarbamothioyl)propanamide], the concentration for half-maximal inhibition (IC50) in data set [1] (MRC5, 24 h) is more than 200 µM; in data set [1] (MRC5, 48 h) it was more than 200 µM; in data set [1] (MRC5, 72 h), more than 200 µM; with MDA-MB-231 (setting [2]) it was more than 200 µM; in the data set with MDA-MB-231 (setting [3]), more than 200 µM; in the data set on MDA-MB-231 (setting [4]) it was more than 200 µM. Moreover, the inhibition at 10 µM on 5-LOX came out at 34.6 ± 5.84%.
`COc1ccc2cc([C@H](C)C(=O)NC(=S)Nc3ccc(C)cc3)ccc2c1` [Compound 9, (S)-2-(6-methoxynaphthalen-2-yl)-N-(p-tolylcarbamothioyl)propanamide]: the concentration for half-maximal inhibition (IC50) in data set [1] (MRC5, 24 h) is more than 200 µM; in data set [1] (MRC5, 48 h) it was more than 200 µM; in data set [1] (MRC5, 72 h), more than 200 µM; in the data set with MDA-MB-231 (setting [2]) it was more than 200 µM; in the data set with MDA-MB-231 (setting [3]) it was more than 200 µM; in the data set on MDA-MB-231 (setting [4]) it was 112 ± 18.1 µM. Moreover, the inhibition at 10 µM on 5-LOX is 12.9 ± 5.47%.
On to `COc1ccc2cc([C@H](C)C(=O)NC(=S)Nc3ccccc3C)ccc2c1` [Compound 10, (S)-2-(6-methoxynaphthalen-2-yl)-N-(o-tolylcarbamothioyl)propanamide], for which the IC50 in data set [1] (MRC5, 24 h) was more than 200 µM; in data set [1] (MRC5, 48 h), more than 200 µM; in data set [1] (MRC5, 72 h), more than 200 µM; with MDA-MB-231 (72 h), 42.2 ± 9.8 µM; in the data set with MDA-MB-231 (setting [2]), 101 ± 11.2 µM; in the data set on MDA-MB-231 (setting [3]), 70.5 ± 8.3 µM. Besides, half-maximal inhibition in the data set on MDA-MB-231 (setting [4]) (IC50) required 42 ± 9 µM. For the same compound, at 5-LOX, the inhibition at 10 µM stood at 27.9 ± 0.57%. In addition, in the data set on MDA-MB-231, the “Cytotoxic effect against the MDA-MB-231 cell line (in words)” value was “moderate cytotoxic effect”.
In the case of `COc1ccc2cc([C@H](C)C(=O)NC(=S)Nc3ccccc3OC)ccc2c1` [Compound 11, (S)-2-(6-methoxynaphthalen-2-yl)-N-((2-methoxyphenyl)carbamothioyl)propanamide], the IC50 is more than 200 µM in data set [1] (MRC5, 24 h); more than 200 µM in data set [1] (MRC5, 48 h); more than 200 µM in data set [1] (MRC5, 72 h); more than 200 µM in the data set with MDA-MB-231 (setting [2]); more than 200 µM in the data set with MDA-MB-231 (setting [3]); more than 200 µM in the data set on MDA-MB-231 (setting [4]). Further, the inhibition at 10 µM on 5-LOX amounted to 31.2 ± 5.45%.
As to `COc1ccc2cc([C@H](C)C(=O)NC(=S)Nc3ccccc3F)ccc2c1` [Compound 12, (S)-N-((2-fluorophenyl)carbamothioyl)-2-(6-methoxynaphthalen-2-yl)propanamide], the half-inhibitory concentration (IC50) in data set [1] (MRC5, 24 h) is more than 200 µM; in data set [1] (MRC5, 48 h), more than 200 µM; in data set [1] (MRC5, 72 h), more than 200 µM; in the data set on MDA-MB-231 (setting [2]), more than 200 µM; in the data set on MDA-MB-231 (setting [3]), more than 200 µM; with MDA-MB-231 (setting [4]) it was more than 200 µM. For the same compound, the inhibition at 10 µM on 5-LOX was found to be 29.7 ± 8.56%.
Consider `COC(=O)[C@H](Cc1ccccc1)NC(=S)NC(=O)[C@@H](C)c1ccc2cc(OC)ccc2c1` [Compound 13, Methyl (((S)-2-(6-methoxynaphthalen-2-yl)propanoyl)carbamothioyl)phenylalaninate], for which the half-inhibitory concentration (IC50) in data set [1] (MRC5, 24 h) is more than 200 µM; in data set [1] (MRC5, 48 h), more than 200 µM; in data set [1] (MRC5, 72 h), more than 200 µM; in the data set with MDA-MB-231 (setting [2]), more than 200 µM; with MDA-MB-231 (setting [3]), more than 200 µM; in the data set on MDA-MB-231 (setting [4]) it was 99.5 ± 8.2 µM. Moreover, on 5-LOX, the inhibition at 10 µM stood at 19.8 ± 13.2%.
Consider `COC(=O)[C@H](Cc1c[nH]c2ccccc12)NC(=S)NC(=O)[C@@H](C)c1ccc2cc(OC)ccc2c1` [Compound 14, Methyl (((S)-2-(6-methoxynaphthalen-2-yl)propanoyl)carbamothioyl)tryptophanate], for which the IC50 in data set [1] (MRC5, 24 h) is more than 200 µM; in data set [1] (MRC5, 48 h), more than 200 µM; in data set [1] (MRC5, 72 h), more than 200 µM; with MDA-MB-231 (setting [2]) it was more than 200 µM; in the data set with MDA-MB-231 (setting [3]), more than 200 µM; in the data set with MDA-MB-231 (setting [4]), 117 ± 15.3 µM. Also, at 5-LOX, the inhibition at 10 µM turned out to be 46.24 ± 0.4%.
